Test results taken from paper PMC9545004, “Transglutaminase 2 affinity and enzyme‐substrate intermediate stability as determining factors for T‐cell responses to gluten peptides in celiac disease” (European Journal of Immunology, 2022).

Key:
[1] = test system: TCR-transfectant cells specific for DQ2.5-glia-α2 or DQ2.5-glia-ω2; experiment: Inhibition by primary amines of gluten-specific T-cell stimulation via TG2-specific B cells, both epitopes; type: cell-based; conditions: native α-gliadin 33-mer and ω-gliadin 34-mer, IL-2 production, Table S2, read-out: IC50, inhibition of T-cell stimulation (range)
From the text: (§1) Murine A20 B lymphoma cells engineered to express either the celiac patient‐derived TG2‐specific BCR 679‐14‐E06 or the non‐TG2‐specific BCR 693‐2‐F02 as human IgD are previously described. For B‐cell/T‐cell collaboration assays, we used A20 BCR transfectants also transduced to express HLA‐DQ2.5 [27]. Murine BW58α^–β^– cells were retrovirally transduced to express human CD4 as well as the celiac patient‐derived gluten‐specific TCR from a DQ2.5‐glia‐γ1‐reactive T‐cell clone (TCC 4.32) as previously described. The generation of TCR transfectants expressing DQ2.5‐glia‐α2‐reactive TCR (TCC 364.14) and DQ2.5‐glia‐ω2‐reactive TCR (clone 737.30) have been described previously.
The B‐cell/T‐cell collaboration assays were set up as previously described. […] The next day, IL‐2 concentration was measured in the culture supernatant by ELISA as previously described. The responsiveness of different TCR transfectants was assessed in the same way, but without the 30 min incubation with TG2, and using the synthetic deamidated peptides (D‐α‐gliadin 20‐mer, D‐ω‐gliadin 17‐mer, and D‐γ‐gliadin 21‐mer). […]

[2] = test system: TCR-transfectant cells specific for DQ2.5-glia-α2; experiment: Inhibition by primary amines of activation of DQ2.5-glia-α2-specific T cells by TG2-specific B cells, IL-2 ELISA; type: cell-based; conditions: for IC50: 5 µM N-α-gliadin 33-mer, TG2, CaCl2, amine 0-1000 µM, IL-2 ELISA
From the text: as §1
The B‐cell/T‐cell collaboration assays were set up as previously described. To compare the uptake and presentation of different gluten peptides to T cells, A20 cells (5 mill/mL) expressing the TG2‐specific BCR (679‐14‐E06) and HLA DQ2.5 were incubated with recombinant TG2 (final 3 µg/mL) and varying amounts of N‐α‐gliadin 20‐mer, N‐ω‐gliadin 19‐mer, or N‐γ‐gliadin 21‐mer in RPMI supplemented with 2 mM CaCl2. After a 30 min incubation at 37°C the cells were washed with 1% FCS/RPMI and resuspended in 5% FCS/RPMI to give a final 1.5 million cells/mL (150 000/well) followed by 2 h incubation at 37°C. Next, TCR‐transfectant cells specific for either DQ2.5‐glia‐α2, DQ2.5‐glia‐ω2, or DQ2.5‐glia‐γ1 were added (25 000/well), followed by overnight incubation at 37°C. The next day, IL‐2 concentration was measured in the culture supernatant by ELISA as previously described. The responsiveness of different TCR transfectants was assessed in the same way, but without the 30 min incubation with TG2, and using the synthetic deamidated peptides (D‐α‐gliadin 20‐mer, D‐ω‐gliadin 17‐mer, and D‐γ‐gliadin 21‐mer). To assess how TG2 secondary substrate affects peptide uptake and presentation to T cells, TG2‐specific A20 cells expressing DQ2.5 were incubated with TG2, CaCl2, 5 µM N‐ω‐gliadin 34‐mer, or 5 µM N‐α‐gliadin 33‐mer in the presence of primary amines at increasing concentrations (0‐1000 µM), before the addition of TCR‐transfectant cells specific for the DQ2.5‐glia‐α2 or DQ2.5‐glia‐ω2 epitopes. The dose‐response curve fitting to find IC50 was done using the “[Inhibitor] vs. response” equation in GraphPad Prism 8.3.0. To examine whether primary amines directly affect the B cells, TG2‐specific A20 cell expressing DQ2.5 were incubated with primary amines for 30 min and washed, before addition of 2 µM D‐ω‐gliadin 34‐mer, followed by incubation with DQ2.5‐glia‐ω2 TCR transfectants.

[3] = test system: TG2-specific A20 cells expressing DQ2.5 and DQ2.5-glia-ω2 TCR transfectants; experiment: Effect of primary amines on T-cell response to deamidated gluten peptide (off-target/toxicity control); type: cell-based, Murine A20 B cells and BW58α–β– cells; conditions: 30 min pre-incubation of A20 cells with amine, then D-ω-gliadin 34-mer and DQ2.5-glia-ω2 TCR transfectants; IL-2; Figure S6
Protocol: The B‐cell/T‐cell collaboration assays were set up as previously described. To compare the uptake and presentation of different gluten peptides to T cells, A20 cells (5 mill/mL) expressing the TG2‐specific BCR (679‐14‐E06) and HLA DQ2.5 were incubated with recombinant TG2 (final 3 µg/mL) and varying amounts of N‐α‐gliadin 20‐mer, N‐ω‐gliadin 19‐mer, or N‐γ‐gliadin 21‐mer in RPMI supplemented with 2 mM CaCl2. After a 30 min incubation at 37°C the cells were washed with 1% FCS/RPMI and resuspended in 5% FCS/RPMI to give a final 1.5 million cells/mL (150 000/well) followed by 2 h incubation at 37°C. Next, TCR‐transfectant cells specific for either DQ2.5‐glia‐α2, DQ2.5‐glia‐ω2, or DQ2.5‐glia‐γ1 were added (25 000/well), followed by overnight incubation at 37°C. The next day, IL‐2 concentration was measured in the culture supernatant by ELISA as previously described. The responsiveness of different TCR transfectants was assessed in the same way, but without the 30 min incubation with TG2, and using the synthetic deamidated peptides (D‐α‐gliadin 20‐mer, D‐ω‐gliadin 17‐mer, and D‐γ‐gliadin 21‐mer). […]
or T cells in our cellular assays. […] T-cell activation was assessed b y ELISA quant ification of IL-2 secreted into the cell culture medium. […]

[4] = DQ2.5-glia-α2, replicate Figure S5A
[5] = DQ2.5-glia-α2, replicate Figure S5B
[6] = logIC50, DQ2.5-glia-α2, Figure 5
[7] = logIC50, DQ2.5-glia-α2, replicate Figure S5A
[8] = logIC50, DQ2.5-glia-α2, replicate Figure S5B

NCCCNCCCCNCCCN [spermine]
IC50 [1]: 27 to 58 µM | IC50 ([2]; DQ2.5-glia-α2, Figure 5): 77.3 µM | IC50 ([2]; DQ2.5-glia-α2, mean): 58 µM | IC50 [2, 4]: 17.7 µM | IC50 [2, 5]: 78.9 µM | logIC50 ([2]; DQ2.5-glia-α2, Figure 5): 1.89 | logIC50 ([2]; DQ2.5-glia-α2, mean): 1.68 | logIC50 [2, 4]: 1.25 | logIC50 [2, 5]: 1.90 | log 95% CI lower limit [2, 6]: 1.53 | log 95% CI upper limit [2, 6]: 2.27 | log 95% CI lower limit ([2]; logIC50, DQ2.5-glia-α2, mean): 1.25 | log 95% CI upper limit ([2]; logIC50, DQ2.5-glia-α2, mean): 2.11 | log 95% CI lower limit [2, 7]: 0.638 | log 95% CI upper limit [2, 7]: 1.83 | log 95% CI lower limit [2, 8]: 1.59 | log 95% CI upper limit [2, 8]: 2.22 | toxic effect on B cells or T cells in cellular assays [3]: no toxic effect

NCCCCCNC(=O)CCCC[C@@H]1SC[C@@H]2NC(=O)N[C@@H]21 [5-BP, 5‐biotinamido‐pentylamine]
IC50 [1]: 27 to 58 µM | IC50 ([2]; DQ2.5-glia-α2, Figure 5): 42.7 µM | IC50 ([2]; DQ2.5-glia-α2, mean): 53.3 µM | IC50 [2, 4]: 23.7 µM | IC50 [2, 5]: 93.6 µM | logIC50 ([2]; DQ2.5-glia-α2, Figure 5): 1.63 | logIC50 ([2]; DQ2.5-glia-α2, mean): 1.66 | logIC50 [2, 4]: 1.37 | logIC50 [2, 5]: 1.97 | log 95% CI lower limit [2, 6]: 1.48 | log 95% CI upper limit [2, 6]: 1.78 | log 95% CI lower limit ([2]; logIC50, DQ2.5-glia-α2, mean): 1.39 | log 95% CI upper limit ([2]; logIC50, DQ2.5-glia-α2, mean): 1.93 | log 95% CI lower limit [2, 7]: 1.15 | log 95% CI upper limit [2, 7]: 1.60 | log 95% CI lower limit [2, 8]: 1.54 | log 95% CI upper limit [2, 8]: 2.43 | toxic effect on B cells or T cells in cellular assays [3]: no toxic effect
